Assay results as given in PubChem BioAssay AID328 (DTP/NCI, 2004).
Several values for one entry are separate records, joined by “and”; a condition that tells them apart may be missing. Identical values can stand only once. Toxic doses and inconclusive results are not listed.

Test system: BDF1 mice, P388 leukemia ip, median survival T/C
Assay: NCI In Vivo Anticancer Drug Screen. Data for tumor model P388 Leukemia (intraperitoneal) in B6D2F1 (BDF1) mice
Conditions: endpoint: median survival time, higher = longer survival
Procedure, shortened: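 Read-out is survival of treated animals expressed relative to the vehicle group, as a T/C ratio.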

[1] = dose: 12.5 mg/kg/injection, schedule: Q01DX009 (ip), vehicle: saline
[2] = dose: 25.0 mg/kg/injection, schedule: Q01DX009 (ip), vehicle: saline
[3] = dose: 50.0 mg/kg/injection, schedule: Q01DX009 (ip), vehicle: saline
[4] = dose: 100.0 mg/kg/injection, schedule: Q01DX009 (ip), vehicle: saline with Tween-80
[5] = dose: 25.0 mg/kg/injection, schedule: Q04DX003 (ip), vehicle: saline with Tween-80
[6] = dose: 50.0 mg/kg/injection, schedule: Q04DX003 (ip), vehicle: saline with Tween-80

For `O=C(CBr)Nc1nccs1`, the T/C (dose: 1.56 mg/kg/injection, schedule: Q01DX009 (ip), vehicle: saline) was 100 % of control, the T/C (dose: 3.12 mg/kg/injection, schedule: Q04DX003 (ip), vehicle: saline) was 95 % of control and the T/C (dose: 6.25 mg/kg/injection, schedule: Q01DX009 (ip), vehicle: saline) was 97 % of control. The T/C (dose: 6.25 mg/kg/injection, schedule: Q04DX003 (ip), vehicle: saline) was 94 % of control and 102 % of control, the T/C [1] was 90 % of control and the T/C (dose: 12.5 mg/kg/injection, schedule: Q04DX003 (ip), vehicle: saline) was 91 % of control and 97 % of control. The T/C [2] was 97 % of control, the T/C (dose: 25.0 mg/kg/injection, schedule: Q04DX003 (ip), vehicle: saline) was 91 % of control and 97 % of control and 100 % of control and the T/C [3] was 104 % of control.
For `CC(=O)OC1(C)CC(C)(C)N=N1` (stereo not drawn), the T/C (dose: 25.0 mg/kg/injection, schedule: Q01DX005 (ip), vehicle: water) was 107 % of control, the T/C (dose: 50.0 mg/kg/injection, schedule: Q01DX005 (ip), vehicle: water) was 105 % of control and the T/C (dose: 100.0 mg/kg/injection, schedule: Q01DX005 (ip), vehicle: water) was 105 % of control. For the same compound, the T/C (dose: 200.0 mg/kg/injection, schedule: Q01DX005 (ip), vehicle: water) was 114 % of control and the T/C (dose: 400.0 mg/kg/injection, schedule: Q01DX005 (ip), vehicle: water) was 107 % of control.
`CCCC(O)C(NC(=O)CCl)C(=O)O` (stereo not drawn) was tested, and the T/C (dose: 125.0 mg/kg/injection, schedule: Q01DX005 (ip), vehicle: other) was 104 % of control and the T/C (dose: 250.0 mg/kg/injection, schedule: Q01DX005 (ip), vehicle: other) was 104 % of control.
With `COc1ccc(Nc2ccnc3cc(Cl)ccc23)cc1CN(CCCl)CCCl` the T/C (dose: 0.11 mg/kg/injection, schedule: Q01DX009 (ip), vehicle: saline) was 100 % of control, the T/C (dose: 0.13 mg/kg/injection, schedule: Q01DX009 (ip), vehicle: saline) was 89 % of control and the T/C (dose: 0.2 mg/kg/injection, schedule: Q01DX009 (ip), vehicle: saline) was 180 % of control. For the same compound, the T/C (dose: 0.22 mg/kg/injection, schedule: Q01DX009 (ip), vehicle: saline) was 117 % of control, the T/C (dose: 0.22 mg/kg/injection, schedule: Q04DX003 (ip), vehicle: saline) was 113 % of control and the T/C (dose: 0.33 mg/kg/injection, schedule: Q04DX003 (ip), vehicle: saline) was 104 % of control. For the same compound, the T/C (dose: 0.44 mg/kg/injection, schedule: Q01DX009 (ip), vehicle: saline) was 166 % of control, the T/C (dose: 0.5 mg/kg/injection, schedule: Q04DX003 (ip), vehicle: saline) was 122 % of control and the T/C (dose: 0.66 mg/kg/injection, schedule: Q01DX009 (ip), vehicle: saline) was 163 % of control. For the same compound, the T/C (dose: 1.0 mg/kg/injection, schedule: Q01DX009 (ip), vehicle: saline) was 163 % of control, the T/C (dose: 1.25 mg/kg/injection, schedule: Q01DX009 (ip), vehicle: Klucel (hydroxypropylcellulose) (HPC)) was 155 % of control and the T/C (dose: 1.5 mg/kg/injection, schedule: Q01DX009 (ip), vehicle: saline) was 176 % of control. For the same compound, the T/C (dose: 2.5 mg/kg/injection, schedule: Q01DX009 (ip), vehicle: Klucel (hydroxypropylcellulose) (HPC)) was 155 % of control, the T/C (dose: 3.13 mg/kg/injection, schedule: Q04DX003 (ip), vehicle: saline) was 154 % of control and the T/C (dose: 4.0 mg/kg/injection, schedule: Q01DX009 (ip), vehicle: saline) was 86 % of control. The T/C (dose: 25.0 mg/kg/injection, schedule: Q04DX003 (ip), vehicle: saline sonified) was 88 % of control.
For `C[C@]12CC[C@@H]3c4ccc(OC(=O)Cc5ccc(N(CCCl)CCCl)cc5)cc4CC[C@H]3[C@@H]1CC[C@@H]2OC(=O)Cc1ccc(N(CCCl)CCCl)cc1`, the T/C (dose: 64.0 mg/kg/injection, schedule: Q01DX009 (ip), vehicle: Klucel (hydroxypropylcellulose) (HPC)) was 95 % of control and 105 % of control, the T/C [4] was 118 % of control and the T/C (dose: 128.0 mg/kg/injection, schedule: Q01DX009 (ip), vehicle: Klucel (hydroxypropylcellulose) (HPC)) was 98 % of control and 123 % of control. For the same compound, the T/C (dose: 256.0 mg/kg/injection, schedule: Q01DX009 (ip), vehicle: Klucel (hydroxypropylcellulose) (HPC)) was 111 % of control, the T/C (dose: 264.0 mg/kg/injection, schedule: Q04DX003 (ip), vehicle: saline with Tween-80) was 108 % of control and the T/C (dose: 400.0 mg/kg/injection, schedule: Q01DX009 (ip), vehicle: saline with Tween-80) was 200 % of control. For the same compound, the T/C (dose: 400.0 mg/kg/injection, schedule: Q04DX003 (ip), vehicle: saline with Tween-80) was 112 % of control and the T/C (dose: 512.0 mg/kg/injection, schedule: Q01DX009 (ip), vehicle: Klucel (hydroxypropylcellulose) (HPC)) was 195 % of control.
`CC(C)=CCC1=C(O)c2ccccc2C(=O)C1=O` was tested, and the T/C (dose: 25.0 mg/kg/injection, schedule: Q#A X018 (oral), vehicle: other) was 100 % of control, the T/C (dose: 50.0 mg/kg/injection, schedule: Q01DX010 (ip), vehicle: other) was 104 % of control and the T/C (dose: 50.0 mg/kg/injection, schedule: Q01DX010 (ip), vehicle: water) was 118 % of control. For the same compound, the T/C (dose: 50.0 mg/kg/injection, schedule: Q#A X018 (oral), vehicle: other) was 100 % of control, the T/C (dose: 50.0 mg/kg/injection, schedule: Q#A X020 (ip), vehicle: other) was 100 % of control and the T/C (dose: 75.0 mg/kg/injection, schedule: Q01DX010 (ip), vehicle: water) was 100 % of control and 109 % of control. The T/C (dose: 100.0 mg/kg/injection, schedule: Q01DX010 (ip), vehicle: other) was 118 % of control, the T/C (dose: 100.0 mg/kg/injection, schedule: Q#A X018 (oral), vehicle: other) was 100 % of control and the T/C (dose: 100.0 mg/kg/injection, schedule: Q#A X020 (ip), vehicle: other) was 90 % of control. For the same compound, the T/C (dose: 125.0 mg/kg/injection, schedule: Q01DX010 (ip), vehicle: water) was 95 % of control, the T/C (dose: 150.0 mg/kg/injection, schedule: Q01DX010 (ip), vehicle: water) was 90 % of control and 104 % of control and the T/C (dose: 150.0 mg/kg/injection, schedule: Q#A X018 (ip), vehicle: other) was 100 % of control. The T/C (dose: 150.0 mg/kg/injection, schedule: Q#A X020 (ip), vehicle: other) was 120 % of control.
For `O=C(CC(Cl)(C(F)(F)F)C(F)(F)F)c1cccc([N+](=O)[O-])c1`, the T/C (dose: 12.5 mg/kg/injection, schedule: Q01DX001 (ip), vehicle: saline with Tween-80) was 113 % of control, the T/C (dose: 25.0 mg/kg/injection, schedule: Q01DX001 (ip), vehicle: saline with Tween-80) was 109 % of control and the T/C (dose: 50.0 mg/kg/injection, schedule: Q01DX001 (ip), vehicle: saline with Tween-80) was 109 % of control.
In the case of `C/C(=C/c1cc2c(cc1Br)OCO2)[N+](=O)[O-]`, the T/C [5] is reported as 98 % of control, the T/C [6] is reported as 98 % of control and the T/C (dose: 100.0 mg/kg/injection, schedule: Q04DX003 (ip), vehicle: saline with Tween-80) is reported as 100 % of control and 106 % of control. The T/C (dose: 200.0 mg/kg/injection, schedule: Q04DX003 (ip), vehicle: saline with Tween-80) was 115 % of control.
With `CSc1nnc(-c2ccncc2)s1` the T/C (dose: 50.0 mg/kg/injection, schedule: Q01DX001 (ip), vehicle: saline) was 100 % of control, the T/C (dose: 100.0 mg/kg/injection, schedule: Q01DX001 (ip), vehicle: saline) was 100 % of control and the T/C (dose: 200.0 mg/kg/injection, schedule: Q01DX001 (ip), vehicle: saline) was 100 % of control.
`Cc1ccnc(NC2=CC(=O)C(=O)c3ccccc32)c1` was tested, and the T/C [3] was 100 % of control, the T/C (dose: 75.0 mg/kg/injection, schedule: Q01DX009 (ip), vehicle: saline) was 118 % of control and the T/C (dose: 112.5 mg/kg/injection, schedule: Q01DX009 (ip), vehicle: saline) was 118 % of control.
For `CC(O)CN(CCN(CC(C)O)CC(C)O)CC(C)O.[Cl-].[Co+2]` (stereo not drawn), the T/C (dose: 100.0 mg/kg/injection, schedule: Q01DX009 (ip), vehicle: saline) was 110 % of control.
`O=C(Nc1cc(C(F)(F)F)cc(C(F)(F)F)c1)Nc1c(Oc2ccc(Cl)cc2Cl)ccc(Cl)c1S(=O)(=O)O` was tested, and the T/C (dose: 50.0 mg/kg/injection, schedule: Q04DX003 (ip), vehicle: saline sonified) was 87 % of control and the T/C (dose: 100.0 mg/kg/injection, schedule: Q04DX003 (ip), vehicle: saline sonified) was 87 % of control.
With `CC(=O)OC1C=CCC2C(=O)C34CC=CC(OC(C)=O)C3(C(=O)c3ccccc3C4=O)C(=O)C12` (stereo not drawn) the T/C (dose: 3.12 mg/kg/injection, schedule: Q01DX009 (ip), vehicle: saline) was 95 % of control, the T/C [1] was 95 % of control and the T/C [2] was 114 % of control.
For `CC(=O)OC(CC(O)(C(F)(F)F)C(F)(F)F)C(C)(C)C` (stereo not drawn), the T/C (dose: 12.5 mg/kg/injection, schedule: Q04DX003 (ip), vehicle: saline with Tween-80) was 90 % of control, the T/C [5] was 90 % of control and the T/C [6] was 90 % of control.
With `CC(=O)n1nc(Cl)c2ccc([N+](=O)[O-])cc21` the T/C (dose: 50.0 mg/kg/injection, schedule: Q01DX009 (ip), vehicle: saline with Tween-80) was 97 % of control, the T/C [4] was 100 % of control and the T/C (dose: 200.0 mg/kg/injection, schedule: Q01DX009 (ip), vehicle: saline with Tween-80) was 100 % of control.
